Experimental findings from patent US8415300B2, “Sustained release of microcrystalline peptide suspensions” (Medical Research Council Technology, priority 2001, dated 2013) are described below.

Where a name gives a salt, the structure may show the parent alone. Starred links: 1 amine or outer side, 2 acyl side, 3 side chain; linkers in the order of their positions; H or OH if unused. Positions of bridges follow the written chain, without caps; N, C: chain ends. Non-standard residues stand in square brackets, D forms with d. Residues, ends and D or L forms follow the SMILES beside them. Groups on a side chain read outwards from the residue. No end group written: not given here. *: point of attachment. dTrp(2-Me) = Cc1[nH]c2ccccc2c1C[C@@H](N)C(=O)O; Trp(2-Me) = Cc1[nH]c2ccccc2c1C[C@H](N)C(=O)O; dPhe(4-Cl) = N[C@H](Cc1ccc(Cl)cc1)C(=O)O; d2Nal = N[C@H](Cc1ccc2ccccc2c1)C(=O)O; d(hCit) = NC(=O)NCCCC[C@@H](N)C(=O)O; Lys(iPr) = CC(C)NCCCC[C@H](N)C(=O)O; Ethylenediamine = C(CN[*:2])N[*:1]; Hyp = O=C(O)[C@@H]1C[C@@H](O)CN1; dCit = NC(=O)NCCC[C@@H](N)C(=O)O; d3Pal = N[C@H](Cc1cccnc1)C(=O)O; Phg = N[C@H](C(=O)O)c1ccccc1; CO = O=C([*:1])[*:2]; Bn = c1ccc(C*)cc1

A short description of data set [1]: Physical form (gel or flowing milky microcrystalline suspension) of the peptide salt mixed with aqueous medium or counter-ion acid. In kind it is physicochemical. The protocol:
Such behavior is not elicited by other salts such as the acetate, which result in the expected, but unwanted, formation of gels with poor bioavailability in vivo.
(§1) 200 μL of 5% mannitol were added to approximately 15 mg of the LHRH antagonist Teverelix trifluoroacetate. […] The suspension is made of microcrystals of about 10 μm length. Microcrystals may clump together to form urchin like structures. The suspension was injected in rats (1 mg) sub-cutaneously and provided the pharmacodynamic effect of testosterone suppression for more than 45 days (FIG. 1).
200 μL of water were added to approximately 15 mg of the LHRH antagonist Teverelix trifluoroacetate.
200 μL of water were added to approximately 15 mg of the LHRH antagonist Teverelix acetate.
In another study, 100 μL of TFA of various concentrations were added to 7.5 mg of the LHRH antagonist Teverelix acetate, with the TFA/Teverelix molar ratio ranging from 1 to 3.
200 μL of 150 mM TFA were added to amounts of the LHRH antagonist Teverelix acetate ranging from 5 to 30 mg (concentration ranging from 25 to 150 mg/mL).
The suspension was freeze-dried overnight.
(§2) The suspension was freeze-dried overnight. […] These suspensions were stable for at least 3 days at room temperature.
The suspension is made of microcrystals of about […] length. Microcrystals may assemble together to form urchin like structures. The suspension was freeze-dried overnight. […]

Data set [2] in a line: Pharmacokinetic analysis: sustained release of the peptide after injection of the suspension. The class given is in vivo, rats. As to the method: FIG. 2 is a graph which illustrates the sustained release of the peptide Teverelix for several weeks in rats injected with the suspension of Teverelix trifluoroacetate according to the invention.
as §1

Data set [3] can be described thus: Stability of reconstituted suspensions at room temperature. Particulars: reconstituted with water and 0.2 M acetate buffer pH 4.0. The class given is physicochemical.
Description: as §2

[4] abbreviates: 100 μL of 150 mM trifluoroacetic acid solution added to 7.5 mg.

In the case of `CC(=O)N[C@H](Cc1ccc2ccccc2c1)C(=O)N[C@H](Cc1ccc(Cl)cc1)C(=O)N[C@H](Cc1cccnc1)C(=O)N[C@@H](CO)C(=O)N[C@@H](Cc1ccc(O)cc1)C(=O)N[C@H](CCCNC(N)=O)C(=O)N[C@@H](CC(C)C)C(=O)N[C@@H](CCCNC(=N)N)C(=O)N1CCC[C@H]1C(=O)N[C@H](C)C(N)=O` [Cetrorelix acetate, reference compound] (Ac-[d2Nal][dPhe(4-Cl)][d3Pal]SY[dCit]LRP[dA]-NH2), in data set [1] (100 μL of 200 mM trifluoroacetic acid solution added to 2.5 mg), the “physical form after mixing” value is reported as “milky free flowing suspension”.

Turning to `NCCCC[C@@H]1NC(=O)[C@@H](Cc2c[nH]c3ccccc23)NC(=O)[C@H](c2ccccc2)NC(=O)[C@@H]2C[C@@H](OC(=O)NCCN)CN2C(=O)[C@H](Cc2ccccc2)NC(=O)[C@H](Cc2ccc(OCc3ccccc3)cc2)NC1=O` [SOM 230, ETD-carboxy-c[Hyp-Phg-D-Trp-Lys-Tyr(Bzl)-Phe], reference compound] (cyclo([Hyp]([CO-Ethylenediamine])[Phg][dW]KY(Bn)F)), in data set [1] (100 μL of 5% mannitol-water solution added to approximately 5 mg), the “physical form after mixing” value is recorded as “milky free flowing suspension”.

For `CC(=O)N[C@H](Cc1ccc2ccccc2c1)C(=O)N[C@H](Cc1ccc(Cl)cc1)C(=O)N[C@H](Cc1cccnc1)C(=O)N[C@@H](CO)C(=O)N[C@@H](Cc1ccc(O)cc1)C(=O)N[C@H](CCCCNC(N)=O)C(=O)N[C@@H](CC(C)C)C(=O)N[C@@H](CCCCNC(C)C)C(=O)N1CCC[C@H]1C(=O)N[C@H](C)C(N)=O` [Teverelix trifluoroacetate, Ac-D-Nal-D-pClPhe-D-Pal-Ser-Tyr-D-Hci-Leu-Lys(iPr)-Pro-D-Ala-NH2] (Ac-[d2Nal][dPhe(4-Cl)][d3Pal]SY[d(hCit)]L[Lys(iPr)]P[dA]-NH2), the “sustained release of the peptide, duration” value in data set [2] (rats, 1 mg sub-cutaneously, suspension in 5% mannitol) is “several weeks”.

As for “Ac-D-Nal-D-pClPhe-D-Pal-Ser-Tyr-D-Hci-Leu-Lys(iPr)-Pro-D-Ala-NH2 [Teverelix acetate]”, the “physical form after mixing” value in data set [1] (150 mM TFA (3 mols/mol): 200 μL to approximately 15 mg (Example 6) or 1 mL to approximately 75 mg (Example 7)) is on record as “flowing milky suspension”; in data set [1] (100 μL of 150 mM trifluoromethane sulfonic acid solution added to 7.5 mg) it was “free flowing milky suspension”; in data set [1] (100 μL of 250 mM H2SO4 added to 7.5 mg (5 mols/mol), after several hours) it was “flowing milky suspension”; in data set [1] (200 μL of 75 mM TFA with approximately 15 mg (1.5 mol/mol)) it was “transparent gel”; in data set [1] (200 μL of 100 mM TFA added to approximately 15 mg (2 mols/mol)), “flowing milky suspension”; in data set [1] (approximately 15 mg in 200 μL of water, vortex one minute), “transparent gel”. The “physical form after freeze-drying and reconstitution” value in data set [1] (150 mM TFA suspension freeze-dried overnight, 1 mL of water and 0.2 M acetate buffer pH 4.0 added) is on record as “flowing milky suspension”; in data set [1] (150 mM TFA suspension freeze-dried overnight, 200 μL of water or 5% mannitol added), “flowing milky suspension”; in data set [1] (H2SO4 suspension freeze-dried overnight, 100 μl of water or 5% mannitol added) it was “flowing milky suspension”. Further, the “physical form after addition of TFA to the gel” value in data set [1] (20 μL of TFA (3 mols/mol) added to gel of approximately 15 mg in 200 μL water) is “fluid, flowing milky pearly suspension”. In addition, the “TFA/Teverelix molar ratio at which a flowing milky suspension was obtained” value in data set [1] (100 μL of TFA of various concentrations added to 7.5 mg, molar ratio ranging from 1 to 3, gels at other ratios) amounted to 1.6. For the same molecule, in data set [1] (200 μL of 150 mM TFA added to 5 to 30 mg (25 to 150 mg/mL)), the “concentration at which a flowing milky suspension was obtained” value was “up to 100 mg/mL”. Also, the microcrystal length entry in data set [1] (suspension from 100 μL of 250 mM H2SO4 and 7.5 mg) is given as “about 100 μm”. In addition, in data set [3], the “stability of the reconstituted suspensions” value is on record as “at least 3 days”.

Take “Ac-D-Nal-D-pClPhe-D-Pal-Ser-Tyr-D-Hci-Leu-Lys(iPr)-Pro-D-Ala-NH2 [Teverelix hydrochloride]”: the “physical form after mixing” value in data set [1] (100 μL of 150 mM benzenesulfonic acid added to 7.5 mg) was “free flowing suspension”.

For the molecule “Ac-D-Nal-D-pClPhe-D-Pal-Ser-Tyr-D-Hci-Leu-Lys(iPr)-Pro-D-Ala-NH2 [Teverelix]”, the “physical form of highly concentrated aqueous suspension” value in data set [1] (as trifluoroacetate (TFA) or sulfate salt, general statement) was “microcrystalline milky suspension”. Also, the “release of the active principle, duration” value in data set [2] (highly concentrated aqueous suspension of TFA or sulfate salt injected parenterally, general statement (FIGS. 1 and 2)) is “several weeks”.

“D-Nal-c[Cys-Tyr-D-Trp-Lys-Val-Cys]-Trp(2Me)-NH2”: in data set [1] (setting [4]), the “physical form after mixing” value is “Free flowing suspensions”.

Consider [dF]CY[dW]KVCW-NH2 (disulfide 2-7), for which, in data set [1] (setting [4]), the “physical form after mixing” value is recorded as “Free flowing suspensions”.

In the case of “[dF]CY[dW]KVC[Trp(2-Me)]-NH2 (disulfide 2-7)”, the “physical form after mixing” value in data set [1] (setting [4]) is “Free flowing suspensions”.

For the molecule “[dTrp(2-Me)]CF[dW]KTC[Trp(2-Me)]-NH2 (disulfide 2-7)”, the “physical form after mixing” value in data set [1] (setting [4]) is listed as “Free flowing suspensions”.
